Measurements as given in patent US12435092B2, “Substituted imidazo[1,2-A]quinazolines as inhibitors of PARG” (858 Therapeutics, Inc., priority 2022, dated 2025).

Molecular target: T1, cellular PARG (Homo sapiens, UniProt Q86W56)
T1 construct: endogenous in cells; host or cells: HeLa
Test: Nuclear PAR accumulation assay (immunofluorescence high-content imaging)
Format: cell-based
Conditions: HeLa cells, 1 hour compound treatment then MMS 50 μg/mL for an additional hour
Summary of the method: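 HeLa cells pretreated 1 h at 37 °C with compound, then 1 h with 50 μg/mL MMS (final), methanol-fixed and immunostained for PAR with DAPI nuclear counterstain. Nuclear PAR intensity and percent PAR-positive cells quantified by high-content imaging (≥1,000 cells/well). IC50 by four-parameter logistic fit, normalized to 0.1% DMSO and reference-compound controls.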

T1 sequence (Q86W56 whole entry): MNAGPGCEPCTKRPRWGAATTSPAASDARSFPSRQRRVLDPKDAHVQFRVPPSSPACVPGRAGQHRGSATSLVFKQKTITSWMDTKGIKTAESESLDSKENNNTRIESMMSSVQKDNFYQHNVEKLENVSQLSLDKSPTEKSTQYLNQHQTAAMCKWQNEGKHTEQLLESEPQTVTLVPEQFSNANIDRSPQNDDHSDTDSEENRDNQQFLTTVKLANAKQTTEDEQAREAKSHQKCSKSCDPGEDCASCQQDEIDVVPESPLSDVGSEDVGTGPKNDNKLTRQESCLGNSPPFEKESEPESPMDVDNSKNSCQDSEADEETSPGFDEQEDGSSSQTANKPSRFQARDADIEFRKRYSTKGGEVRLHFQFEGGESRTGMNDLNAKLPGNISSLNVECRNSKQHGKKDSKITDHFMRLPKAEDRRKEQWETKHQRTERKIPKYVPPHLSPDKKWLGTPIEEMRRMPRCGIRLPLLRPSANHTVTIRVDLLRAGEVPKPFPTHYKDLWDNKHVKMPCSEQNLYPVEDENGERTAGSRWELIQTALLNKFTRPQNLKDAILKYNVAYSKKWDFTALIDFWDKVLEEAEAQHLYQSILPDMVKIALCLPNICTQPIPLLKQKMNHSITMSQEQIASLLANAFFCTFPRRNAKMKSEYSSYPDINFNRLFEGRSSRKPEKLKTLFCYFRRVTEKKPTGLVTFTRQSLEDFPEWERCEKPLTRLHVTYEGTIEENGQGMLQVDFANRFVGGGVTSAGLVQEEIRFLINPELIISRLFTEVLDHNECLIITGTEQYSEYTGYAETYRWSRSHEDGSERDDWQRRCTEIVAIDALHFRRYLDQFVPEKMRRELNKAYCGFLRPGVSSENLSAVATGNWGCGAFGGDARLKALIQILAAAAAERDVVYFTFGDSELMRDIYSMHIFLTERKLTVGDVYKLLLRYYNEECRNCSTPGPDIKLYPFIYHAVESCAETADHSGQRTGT

SMILES	IC50
[2H]C([2H])(c1c(C)noc1C)N1C(=O)c2cc(S(=O)(=O)NC3(C)CC3)ccc2N2C1=NC[C@H]2C [Example 62, (R)-4-((3,5-dimethylisoxazol-4-yl)methyl-d2)-1-methyl-N-(1-methylcyclopropyl)-5-oxo-1,2,4,5-tetrahydroimidazo[1,2-a]quinazoline-7-sulfonamide]	≤ 0.1 µM
Cc1nn(C)cc1CN1C(=O)c2cc(S(=O)(=O)NC3(C)CC3)ccc2N2C1=NC[C@H]2C [Example 80, (R)-4-((1,3-dimethyl-1H-pyrazol-4-yl)methyl)-1-methyl-N-(1-methylcyclopropyl)-5-oxo-1,2,4,5-tetrahydroimidazo[1,2-a]quinazoline-7-sulfonamide]	≤ 0.1 µM
CC[C@H]1CN=C2N(Cc3cnn(C)c3)C(=O)c3cc(S(=O)(=O)NC4(C)CC4)ccc3N21 [Example 44, (S)-1-ethyl-4-((1-methyl-1H-pyrazol-4-yl)methyl)-N-(1-methylcyclopropyl)-5-oxo-1,2,4,5-tetrahydroimidazo[1,2-a]quinazoline-7-sulfonamide]	0.1 to 1 µM
C[C@@H]1CN=C2N(CC3COC3)C(=O)c3cc(S(=O)(=O)NC4(C)CC4)ccc3N21 [Example 54, (R)-1-methyl-N-(1-methylcyclopropyl)-4-(oxetan-3-ylmethyl)-5-oxo-1,2,4,5-tetrahydroimidazo[1,2-a]quinazoline-7-sulfonamide]	> 10 µM
C[C@@H]1CN=C2N(C)C(=O)c3cc(S(=O)(=O)NC4(C)CC4)ccc3N21 [Example 52, (R)-1,4-dimethyl-N-(1-methylcyclopropyl)-5-oxo-1,2,4,5-tetrahydroimidazo[1,2-a]quinazoline-7-sulfonamide]	0.1 to 1 µM
Cc1cc(CN2C(=O)c3cc(S(=O)(=O)NC4(C)CC4)ccc3N3C2=NC[C@H]3C(C)C)on1 [Example 12, (R)-1-isopropyl-N-(1-methylcyclopropyl)-4-((3-methylisoxazol-5-yl)methyl)-5-oxo-1,2,4,5-tetrahydroimidazo[1,2-a]quinazoline-7-sulfonamide]	0.1 to 1 µM
CCN1C(=O)c2cc(S(=O)(=O)NC3(C)CC3)ccc2N2C1=NC[C@@H]2C(C)C [Example 37, (S)-4-ethyl-1-isopropyl-N-(1-methylcyclopropyl)-5-oxo-1,2,4,5-tetrahydroimidazo[1,2-a]quinazoline-7-sulfonamide]	> 10 µM
Cc1noc(C)c1CN1C(=O)c2cc(S(=O)(=O)NC3(C)CC3)ccc2N2C1=NC[C@@H]2C(C)C [Example 68, (S)-4-((3,5-dimethylisoxazol-4-yl)methyl)-1-isopropyl-N-(1-methylcyclopropyl)-5-oxo-1,2,4,5-tetrahydroimidazo[1,2-a]quinazoline-7-sulfonamide]	1 to 10 µM

The next lines start with the values.

IC50	SMILES
≤ 0.1 µM	Cc1nnsc1CN1C(=O)c2cc(S(=O)(=O)NC3(C)CC3)ccc2N2C1=NC[C@H]2C [Example 121, (R)-1-methyl-4-((4-methyl-1,2,3-thiadiazol-5-yl)methyl)-N-(1-methylcyclopropyl)-5-oxo-1,2,4,5-tetrahydroimidazo[1,2-a]quinazoline-7-sulfonamide]
≤ 0.1 µM	Cn1cc(CN2C(=O)c3cc(S(=O)(=O)NC4(C)CC4)ccc3N3C2=NCC32CCC2)cn1 [Example 104, 4′-((1-methyl-1H-pyrazol-4-yl)methyl)-N-(1-methylcyclopropyl)-5′-oxo-4′,5′-dihydro-2′H-spiro[cyclobutane-1,1′-imidazo[1,2-a]quinazoline]-7′-sulfonamide]
1 to 10 µM	CN(C)C[C@H]1CN=C2N(Cc3cnn(C)c3)C(=O)c3cc(S(=O)(=O)NC4(C)CC4)ccc3N21 [Example 96, (S)-1-((dimethylamino)methyl)-4-((1-methyl-1H-pyrazol-4-yl)methyl)-N-(1-methylcyclopropyl)-5-oxo-1,2,4,5-tetrahydroimidazo[1,2-a]quinazoline-7-sulfonamide]
≤ 0.1 µM	C[C@@H]1[C@@H](C)N=C2N(Cc3cnn(C)c3)C(=O)c3cc(S(=O)(=O)NC4(C)CC4)ccc3N21 [Example 109, (1R,2R)-1,2-dimethyl-4-((1-methyl-1H-pyrazol-4-yl)methyl)-N-(1-methylcyclopropyl)-5-oxo-1,2,4,5-tetrahydroimidazo[1,2-a]quinazoline-7-sulfonamide]
